“Also recorded” adds a separate entry of the source. Where two headings read alike, the source gives them in different places.
How the values were obtained:
[1] = test system: KLF4; assay: KLF4 gene expression by RT-PCR, MDA-MB-435; type: cell-based, human; conditions: MDA-MB-435, relative to vehicle control as 1
From the text: (§1) Gene expression levels of KLF4, induced by compounds of Formula I, were also examined on various cancer cell types by RT-PCR. Fold changes in KLF4 in compound-treated cells were expressed relative to KLF4 expression in vehicle control-treated cells of respective cell type as “1”. […] Additionally, xenografts of MDA-MB-435 implanted into mammary fat pads of female SCID mice have shown immunohistochemical staining consistent with melanocytic origin (Ellison G, Klinowska T, Westwood R F, Docter E, French T, Fox J C. (2002) Mol Pathol. 55(5): 294-299). The breast cancer cell line MDA-MB-435 may be expected to function differently than the other breast cancer cell lines.

[2] = test system: human colon carcinoma HT-29 cells; assay: XTT cell proliferation assay, HT-29; type: cell-based
In short: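 HT-29 cells in McCoy's 5A with 10% FBS, 37° C., 5% CO2, exposed to varying compound concentrations for 6-7 days. Viable cells quantified by XTT reduction to formazan; growth inhibition expressed as IC50 (μM).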

[3] = test system: Cyclin D1; assay: Cyclin D1 gene expression in HT-29 cells, RT-PCR; type: cell-based, human; conditions: for Cyclin D1 expression change with zinc supplement: HT-29, 1 μM compound plus ZnCl2; for Cyclin D1 gene expression, change: HT-29, 1 μM, in words
Description: Gene and protein expression of Cyclin D1 after treatment with compound 3 was determined by RT-PCR and Western blotting as shown in FIGS. 43A and 43B, respectively, as follows. HT-29 cells were treated with 1 μM compound 3 for indicated time. Total RNA was extracted and gene expression level was determined by RT-PCR. Cyclin D1 protein expression in HT-29 cell lysate was determined by SDS-PAGE followed by Western blotting.
To identify the cell cycle regulatory pathway involved in compound 3-mediated cell cycle arrest as shown in Example 23 and 41, particularly associated with G1/S phase, expression of the key cell cycle regulator of G1/S phase progression, Cyclin D1, was examined.
The ability of compounds of Formula I to modulate gene expression of MT1A (FIG. 55A), MTF-1 (FIG. 55B), Cyclin D1 (FIG. 55C) and KLF4 (FIG. 55D) was determined by RT-PCR. HT-29 cells were treated with 1 μM compound 3 or compound 7, 35 μM ZnCl2, compound 3 and ZnCl2 together, or compound 7 and ZnCl2 together for 8 to 16 hr. The respective gene expression was normalized with β-actin gene expression in the same sample. Fold change in gene expression was expressed relative to the respective gene level of DMSO control.
The effect of compound 3 and compound 64 on gene expression changes in MT1A (FIG. 57A), MTF-1 (FIG. 57B), Cyclin D1 (FIG. 57C) and KLF4 (FIG. 57D) in HT-29 cells was determined by RT-PCR. HT-29 cells were treated with 1 μM compound 3 or compound 64, 35 μM ZnCl2, compound 3 and ZnCl2 together, or compound 64 and ZnCl2 together for 8 to 16 hr. The respective gene expression was normalized with β-actin gene expression in the same sample. Fold change in gene expression was expressed relative to the respective gene level of DMSO control.

[4] = test system: PC-3 prostate cancer cells; assay: XTT cell proliferation assay, PC-3; type: cell-based, human; conditions: read-out: IC50 (cell growth inhibition)
Description: (§2) Cell growth inhibition IC50 (μM) by compounds of Formula I was tested on various cancer cell types by XTT cell proliferation assay. The growth inhibitory effects of the compounds of Formula I as shown below for the melanoma cell line SK-MEL-2 were reproducible by Lorus Therapeutics Inc.

[5] = test system: KLF4; assay: KLF4 gene expression by RT-PCR, SK-MEL-2; type: cell-based, human; conditions: SK-MEL-2, relative to vehicle control as 1
From the text: as §1

[6] = test system: HCT-116 colon cancer cells; assay: XTT cell proliferation assay, HCT-116; type: cell-based, human; conditions: read-out: IC50 (cell growth inhibition)
Description: as §2

[7] = test system: SK-MEL-2 melanoma cells; assay: XTT cell proliferation assay, SK-MEL-2; type: cell-based, human; conditions: read-out: IC50 (cell growth inhibition)
Description: as §2

[8] = test system: KLF4; assay: KLF4 gene expression by RT-PCR, DU-145; type: cell-based, human; conditions: DU-145, relative to vehicle control as 1
From the text: as §1

[9] = PAR metal binding assay, zinc; type: physicochemical; conditions: pH 7.5, 200 μM PAR
Description: Results are shown in FIGS. 28A (ZnCl2), 28B (CuCl2) and 28C (FeCl2). In vitro 4-(2-pyridylazo) resorcinol (PAR) zinc binding assay was performed as follows. In triplicate wells of 96-well plate (Sarstedt, Newton, N.C.), 10 μL volume of indicated final concentrations of ZnCl2 in 0.2M Tris-HCl, pH 7.5 was incubated with 10 μL of 80% acetonitrile-20% DMSO vehicle control or indicated final concentrations of the compounds of Formula I, dissolved in 80% acetonitrile-20% DMSO, for 15 min at room temperature. Then, 80 μL of PAR at final concentration of 200 μM in 0.2M Tris-HCl, pH 7.5 was added and the color development of PAR-Zn^2+ complex was measured by a multi-well spectrophotometer (Bio-Tek Instruments Inc.) at 500 nm.
Metal chelation property of compound 64 and the relative affinity on different metal ions were evaluated and compared with the effect of compound 3 in vitro using 4-(2-pyridylazo) resorcinol (PAR) colorimetric zinc assay utilizing methodology as described above in the preceding Examples. Indicated final concentrations of ZnCl2 (FIG. 56A), CuCl2 (FIG. 56B) or FeCl2 (FIG. 56C) were incubated with 80% acetonitrile-20% DMSO vehicle control or 200 μM of the compounds of Formula I. The color development of PAR-metal ion complex was measured by a multi-well spectrophotometer at 500 nm.

[10] = test system: DU-145 prostate cancer cells; assay: XTT cell proliferation assay, DU-145; type: cell-based, human; conditions: read-out: IC50 (cell growth inhibition)
Description: as §2

[11] = Homo sapiens, HT-29, XTT, 6-7 days, Table 3, read-out: IC50
[12] = Homo sapiens, HT-29, XTT, as Example 13, Table 7, read-out: IC50
[13] = Homo sapiens, HT-29 colon, Table 8, read-out: IC50 (cell growth inhibition)

SMILES	KLF4 (gene fold increase) [1]	IC50 [2, 11]	IC50 [2, 12]	IC50 [2, 13]	Cyclin D1 expression change with zinc supplement [3]	Cyclin D1 gene expression, change [3]	IC50 ([4]; Homo sapiens)	KLF4 (gene fold increase) [5]	IC50 ([6]; Homo sapiens)	IC50 ([7]; Homo sapiens)	KLF4 (gene fold increase) [8]	Zn binding to PAR (PAR-Zn2+ absorbance at 500 nm) [9]	IC50 ([10]; Homo sapiens)	IC50 ([2]; HT-29, XTT, as Example 13, Table 7)	IC50 ([2]; HT-29 colon, Table 8, read-out: IC50 (cell growth inhibition))	IC50 [4]	IC50 [6]	IC50 [7]	IC50 [10]
Cc1[nH]c2ccccc2c1-c1nc2c3cccnc3c3ncccc3c2[nH]1 [Compound 3]	9.09 fold	600 nM	0.6 µg/mL	710 nM	reversed in the presence of 25 μM ZnCl2; also recorded: reversed by addition of zinc supplement	Time-dependent decreases; also recorded: decrease in both gene (FIG. 43A) and protein (FIG. 43B) levels of Cyclin D1; also recorded: significantly decreased; also recorded: decreased expressions of MT1A, MTF-1 and Cyclin D1	300 nM	2.38 fold	200 nM	250 nM	9.16 fold	attenuated; also recorded: eliminated	350 nM	–	–	–	–	–	–
Cc1[nH]c2ccc(F)cc2c1-c1nc2c3cccnc3c3ncccc3c2[nH]1 [Compound 7]	11.71 fold	700 nM	0.7 µg/mL	800 nM	reversed by addition of zinc supplement	decreased expressions of MT1A, MTF-1 and Cyclin D1	210 nM	3.32 fold	150 nM	200 nM	11.24 fold	–	220 nM	–	–	–	–	–	–
CCc1cccc2c(-c3nc4c5cccnc5c5ncccc5c4[nH]3)c(C(C)(C)C)[nH]c12 [Compound 64]	7.59 fold	–	–	–	reversed by addition of zinc supplement	decreased expressions of MT1A, MTF-1 and Cyclin D1	–	5.35 fold	–	–	6.75 fold	eliminated	–	0.15 µg/mL	150 nM	460 nM	200 nM	200 nM	300 nM

— patent US8148392B2, “2-indolyl imidazo [4,5-d] phenanthroline derivatives and their use in the treatment of cancer” (Lorus Therapeutics Inc., priority 2005, dated 2012)
